Results as given in patent US20110217337A1, “BIOACTIVE AGENT FOR BONE TISSUE ENGINEERING” (UNIVERSITY OF CONNECTICUT, priority 2010, published 2011).

Key:
[1] = water and a variety of pharmaceutically useful buffers and solvents; cited from earlier work
[2] = system: MC3T3E1 cells; test: Cell adhesion on PLAGA matrices (crystal violet stain); assay type: cell-based; conditions: 100 μM vs untreated, adhesion for at least 1 h
Experimental: FIG. 2. Effects of 6-Bnz-cAMP on cell adhesion in MC3T3E1 on PLAGA matrices. Cells were treated with 100 μM 6-Bnz-cAMP or untreated. Cells were allowed to adhere for at least 1 h, and nonadherent cells were removed by washing with phosphate buffer saline (PBS). The adhered cells were stained with crystal violet solution for 15 minutes at room temperature and the absorbed stain dye was then solubilized in 1% SDS solution. The amount of dye taken up by the cells was measured in a spectrophotometer. The plots shown are representative of two independent experiments, each done in triplicate (n=3). Error bars represent SD.
For these experiments, the polymer component of the scaffold, poly(lactic-co-glycolide) (PLAGA) was selected because of its documented degradability and biocompatibility.
More specifically, thin film discs of poly(lactic-co-glycolide) (PLAGA) were fabricated using a traditional solvent-casting method. In this process, the polymer was first dissolved in methylene chloride, then poured into a Teflon-coated dish. The dishes were then placed in a −20° C. freezer to allow solvent evaporation. […]
Adhesion: In the cell adhesion study presented in FIG. 2 cells were allowed to adhere for at least 1 h, and nonadherent cells were removed by washing with phosphate buffer saline (PBS). […] The amount of dye taken up by the cells was measured in a spectrophotometer.

[3] = system: Epac-Rap1 pathway; conditions: unlike cAMP; cited from earlier work
[4] = system: MC3T3E1 cells; test: Cell proliferation, PicoGreen dsDNA assay; assay type: cell-based; conditions: 100 μM in regular growth medium
Experimental: FIG. 3. 6-Bnz-cAMP promotes cell growth in the earliest day of cell culture (Day 1) and maintains the cell proliferation rate at Day 7 and Day 14. Error bars represent SD.
MC3T3E1 subtype 4 cell line was purchased from the […] (ATCC). The cells were grown to confluence, then seeded onto PLAGA discs at a density of 50,000 cells/scaffold. The cells were cultured on the discs in vitro in a 37° C. and 5% CO2 environment, using MEM alpha cell culture medium +10% Fetal Bovine Serum as a nutrient source. At specific time points, cultured cells were collected for various assays i.e., cell adhesion assays, cell proliferation assays, and cell differentiation studies.
Proliferation: Cell proliferation was tested using a PicoGreen dsDNA assay kit (Molecular Probes, Eugene, Oreg.) The procedure of the PicoGreen dsDNA assay was performed according to the manufacturer's instructions. Briefly, 5×10^4 cells ml^−1 were seeded in a well of a tissue culture plate. 100 μM of 6-Bnz-cAMP was added to the regular growth medium during cell seeding. The regular growth medium and 6-Bnz-cAMP (100 μM) were replaced every 3 to 4 days.

[5] = system: Protein Kinase A (PKA); conditions: compared to non-specific cAMP analogue db-cAMP; cited from earlier work
[6] = system: rat mesenchymal stem cells; test: ALP activity in mesenchymal stem cells; assay type: cell-based; conditions: vs untreated control; day 7
Experimental: FIG. 10. ALP activity in untreated (control) rat mesenchymal stem cells and cells treated with BMP-2 or 6-Bnz-cAMP. A-BMP-2 peptide; E-6-Bnz-cAMP; F-Control. […] ALP activities of mesenchymal stem cells were induced by 6-Bnz-cAMP at day 7.
Cell adhesion, proliferation, and differentiation studies: Rabbit MSCs are plated onto PLAGA matrices at a plating density of 1×10^4 cells/cm^2 and cultured in standard basal medium. Four experimental groups are tested: (1) untreated cells, (2) 6-Bnz-cAMP treated cells, (3) BMP-2 treated cells, and (4) 6-Bnz-cAMP and BMP-2 treated cells. […] Initial cell adhesion is determined at 1 h, 3 h, 12 h, and 24 h. Cell proliferation and cell differentiation are determined at 1, 7, 14, and 21 days. Calcium deposition and ALP activity is also measured at days 3, 7, 14, and 21 in untreated cells compared to cells treated with BMP-2 or 6-Bnz-cAMP (FIGS. 9 and 10). […] For the cell adhesion assay, attached cells are quantified by crystal violet stain, a method routinely used to measure the initial cell adhesion. Cell proliferation is measured using a commercially available proliferation assay kit, MTS (Promega). For alkaline phosphatase (ALP) activity, the early markers of osteoblast differentiation are determined with a commercially availia ALP assay kit (Bio-rad). […]

O=C(Nc1ncnc2c1ncn2C1O[C@@H]2COP(=O)([O-])O[C@H]2[C@H]1O)c1ccccc1.[Na+] (stereo partly shown) [6-Bnz-cAMP, N^6-Benzoyladenosine-3′,5′-cyclic monophosphate]
solubility [1]: soluble in water | initial cell adhesion [2]: enhances the initial cell adhesion | activation of the Epac-Rap1 pathway [3]: does not activate | proliferation rate ([4]; Days 7, 14 and 21): maintained | cell growth ([4]; first day of culturing (Day 1)): promote cell growth | activation of the Protein Kinase A (PKA) pathway [5]: selectively activates | ALP activity [6]: increases ALP activity
